Data: patent US5438052A, “Cephalosporin derivatives” (Hoffmann-La Roche Inc., priority 1991, dated 1995)
Values after ≈ are worked out from the molar mass of the structure shown. Counter-ions that a name gives are not always drawn. Like-named read-outs stand apart in the source and are kept apart here.

How the values were obtained:
[1] = tested on: E. coli 25922; test: Experimental systemic septicaemia in the mouse; type: in vivo; conditions: 96 h
Experimental: (§1) 2. Experimental systemic septicaemia in the mouse
(§2) An experimental systemic septicaemia was produced in albino mice weighing 16-20 g by intraperitoneally injecting into the experimental animals a sample of a dilute culture of the test organism which had been grown overnight. The sample administered is calculated such that the dosage administered is about 5-100 times greater than the dosage which is required to kill 50% of untreated experimental animals within 48 hours. The bacteria were injected as a suspension in the culture broth. Groups of 5 experimental animals each were used not only for the control, but also for the treatment for each dosage tested. The products in accordance with the invention were administered subcutaneously as a suspension in Tween 80 (2%), whereby the concentrations were chosen such that each experimental animal received 500 μl per administration. The respective concentrations were administered twice, namely 1 and 3 hours after the infection (in the case of P. aeruginosa three times, namely 1, 3 and 5 hours after the infection). The ED50 is that dosage which protects 50% of the experimental animals and was calculated by means of the Probit method on the basis of the survial rate after 4 days following the infection. The ED50 values in mg/kg s.c. (subcutaneous) for representatives of the class of substance in accordance with the invention are given in Table 2 hereinafter.

[2] = tested on: E. coli 25922; test: Minimum inhibitory concentration in vitro, agar dilution method; type: cell-based; conditions: Escherichia coli
Text: (§3) 1. Minimum Inhibitory Concentration in vitro
(§4) The activities ascertained, minimum inhibitory concentration (MIC) in μg/ml, are compiled in Table 1 hereinafter: […]

[3] = tested on: S. pyogenes 15; test: as above; type: cell-based; conditions: Streptococcus pyogenes
Text: as §3, §4

[4] = tested on: C. freundii 902; test: as above; type: cell-based; conditions: Citrobacter freundii
Text: as §3, §4

[5] = tested on: P. aeruginosa 799/61; test: as above; type: cell-based; conditions: Pseudomonas aeruginosa
Text: as §3, §4

[6] = tested on: P. mirabilis 2117; test: as above; type: cell-based; conditions: Proteus mirabilis
Text: as §3, §4

[7] = tested on: S. aureus 6538; test: as above; type: cell-based; conditions: Staphylococcus aureus
Text: as §3, §4

[8] = tested on: P. aeruginosa BA; test: as above; type: cell-based; conditions: Pseudomonas aeruginosa
Text: as §3, §4

[9] = tested on: E. cloacae 908R; test: as above; type: cell-based; conditions: Enterobacter cloacae
Text: as §3, §4

[10] = tested on: P. aeruginosa 27853; test: as above; type: cell-based; conditions: Pseudomonas aeruginosa
Text: as §3, §4

[11] = tested on: S. marcescens 69438; test: as above; type: cell-based; conditions: Serratia marcescens
Text: as §3, §4

[12] = tested on: K. pneumoniae 418; test: as above; type: cell-based; conditions: Klebsiella pneumoniae
Text: as §3, §4

[13] = tested on: P. aeruginosa MK1184; test: as above; type: cell-based; conditions: Pseudomonas aeruginosa
Text: as §3, §4

[14] = tested on: P. aeruginosa 799/WT; test: as above; type: cell-based; conditions: Pseudomonas aeruginosa
Text: as §3, §4

[15] = tested on: E. cloacae 908SSi; test: as above; type: cell-based; conditions: Enterobacter cloacae
Text: as §3, §4

[16] = tested on: E. aerogenes CF153; test: as above; type: cell-based; conditions: Klebsiella aerogenes
Text: as §3, §4

[17] = tested on: P. vulgaris 1028; test: as above; type: cell-based; conditions: Proteus vulgaris
Text: as §3, §4

[18] = tested on: E. cloacae P99; test: as above; type: cell-based; conditions: Enterobacter cloacae
Text: as §3, §4

[19] = tested on: K. oxytoca 1082; test: as above; type: cell-based; conditions: Klebsiella oxytoca
Text: as §3, §4

[20] = tested on: Pseudomonas aeruginosa BA; test: Experimental systemic septicaemia in the mouse; type: in vivo; conditions: sc, 96 h
Experimental: as §1, §2

[21] = Escherichia coli, sc, E. coli 25922, albino mice, s.c. 1 and 3 hours after infection, survival after 4 days, read-out: ED50
[22] = E. coli 25922, agar dilution, read-out: MIC
[23] = S. pyogenes 15, agar dilution, read-out: MIC
[24] = C. freundii 902, agar dilution, read-out: MIC
[25] = P. aeruginosa 799/61, agar dilution, read-out: MIC
[26] = P. mirabilis 2117, agar dilution, read-out: MIC
[27] = S. aureus 6538, agar dilution, read-out: MIC
[28] = P. aeruginosa BA, agar dilution, read-out: MIC
[29] = E. cloacae 908R, agar dilution, read-out: MIC
[30] = P. aeruginosa 27853, agar dilution, read-out: MIC
[31] = S. marcescens 69438, agar dilution, read-out: MIC
[32] = K. pneumoniae 418, agar dilution, read-out: MIC
[33] = P. aeruginosa MK1184, agar dilution, read-out: MIC
[34] = P. aeruginosa 799/WT, agar dilution, read-out: MIC
[35] = E. cloacae 908SSi, agar dilution, read-out: MIC
[36] = E. aerogenes CF153, agar dilution, read-out: MIC
[37] = P. vulgaris 1028, agar dilution, read-out: MIC
[38] = K. oxytoca 1082, agar dilution, read-out: MIC
[39] = P. aeruginosa BA, albino mice, s.c. 1, 3 and 5 hours after infection, survival after 4 days, read-out: ED50

Row | Structure (SMILES) | ED50 [1, 21] [mg/kg] | MIC [2, 22] [µg/mL] | MIC [3, 23] [µg/mL] | MIC [4, 24] [µg/mL] | MIC [5, 25] [µg/mL] | MIC [6, 26] [µg/mL] | MIC [7, 27] [µg/mL] | MIC [8, 28] [µg/mL] | MIC [9, 29] [µg/mL] | MIC [10, 30] [µg/mL] | MIC [11, 31] [µg/mL] | MIC [12, 32] [µg/mL] | MIC [13, 33] [µg/mL] | MIC [14, 34] [µg/mL] | MIC [15, 35] [µg/mL] | MIC [16, 36] [µg/mL] | MIC [17, 37] [µg/mL] | MIC [18] [µg/mL] | MIC [19, 38] [µg/mL] | ED50 [20, 39] [mg/kg] | also measured
1 | Cc1cc(SCC2=C(C(=O)O)N3C(=O)[C@@H](NC(=O)/C(=N\OCc4nc(=O)c(O)c[nH]4)c4csc(N)n4)[C@H]3SC2)n2nc(CNS(=O)(=O)c3ccc(O)c(O)c3)nc2n1 [Example 2, (6R,7R)-7-[(Z)-2-(2-amino-4-thiazolyl)-2-[[(1,4-dihydro-5-hydroxy-4-oxo-2-pyrimidinyl)methoxy]imino]acetamido]-3-[[[2-[(3,4-dihydroxybenzenesulphonamido)methyl]-5-methyl-s-triazolo[1,5-a]pyrimidinyl-7-yl]thio]methyl]-8-oxo-5-thia-1-azabicyclo[4.2.0]oct-2-ene-2-carboxylic acid sodium salt (1:1)] | 0.3 | < 0.1 | 2 | < 0.1 | < 0.1 | 0.25 | 32 | < 0.1 | 1 | < 0.1 | < 0.25 | < 0.25 | 0.25 | 0.12 | 4 | 0.5 | 0.5 | 16 | 4 |  | 
2 | Cc1cc(SCC2=C(C(=O)[O-])N3C(=O)[C@@H](NC(=O)/C(=N\OCc4nc(=O)c(O)c[nH]4)c4csc(N)n4)[C@H]3SC2)n2nc(COC(=O)c3ccc(O)c(O)c3)nc2n1.[Na+] [Example 6, (6R,7R)-7-[(Z)-2-(2-amino-4-thiazolyl)-2-[[(1,4-dihydro-5-hydroxy-4-oxo-2-pyrimidinyl)methoxy]imino]acetamido]-3-[[[2-[[(3,4-dihydroxybenzoyl)oxy]methyl]-5-methyl-s-triazolo[1,5-a]pyrimidin-7-yl]thio]methyl]-8-oxo-5-thia-1-azabicyclo[4.2.0]oct-2-ene-2-carboxylic acid sodium salt (1:1)] |  |  |  |  |  |  |  |  |  |  |  |  |  |  |  |  |  | 4 |  |  | ED50 ([1]; Escherichia coli, 25922, sc): < 0.2 mg/kg; ED50 [20]: 0.3 mg/kg; MIC [2]; 25922: < 0.1 µg/mL; MIC [3]; 15: 2 µg/mL; MIC [4]; 902: < 0.1 µg/mL; MIC ([5]; 799/61): < 0.1 µg/mL; MIC [6]; 2117: 0.25 µg/mL; MIC [7]; 6538: 16 µg/mL; MIC [8]: < 0.1 µg/mL; MIC ([9]; 908R): 0.12 µg/mL; MIC [10]; 27853: < 0.1 µg/mL; MIC [11]; 69438: 0.12 µg/mL; MIC [12]; 418: < 0.1 µg/mL; MIC ([13]; MK1184): < 0.1 µg/mL; MIC ([14]; 799/WT): < 0.1 µg/mL; MIC ([15]; 908SSI): 4 µg/mL; MIC ([16]; CF153): < 0.1 µg/mL; MIC [17]; 1028: < 0.1 µg/mL; MIC [19]; 1082: 0.12 µg/mL
3 | Cc1cc(SCC2=C(C(=O)O)N3C(=O)[C@@H](NC(=O)/C(=N\OCc4ccc(O)c(O)c4F)c4csc(N)n4)[C@H]3SC2)n2nc(COC(=O)c3ccc(O)c(O)c3)nc2n1 [Example 9] | < 0.05 | < 0.1 | 1 (≈ 1.17 µM) | < 0.1 | < 0.1 | < 0.1 | 8 (≈ 9.37 µM) | < 0.1 | 0.12 (≈ 0.141 µM) | < 0.1 | < 0.1 | < 0.1 | < 0.1 |  | 4 (≈ 4.68 µM) | < 0.1 | < 0.1 | 8 (≈ 9.37 µM) | < 0.1 | 0.24 | 
4 | Nc1nc(/C(=N/OCc2ccc(O)c(O)c2F)C(=O)N[C@@H]2C(=O)N3C(C(=O)O)=C(CSc4nc(-c5ccccc5)ncc4-c4ccc(O)c(O)c4)CS[C@H]23)cs1 [Example 15] | 0.9 | < 0.1 | 0.12 (≈ 0.147 µM) | 0.25 (≈ 0.306 µM) | < 0.1 | 0.12 (≈ 0.147 µM) | 32 (≈ 39.1 µM) | 0.5 (≈ 0.611 µM) | 2 (≈ 2.45 µM) | 1 (≈ 1.22 µM) | 1 (≈ 1.22 µM) | < 0.1 | 32 (≈ 39.1 µM) | 0.5 (≈ 0.611 µM) | 16 (≈ 19.6 µM) | 0.12 (≈ 0.147 µM) | 0.5 (≈ 0.611 µM) | 16 (≈ 19.6 µM) | 0.5 (≈ 0.611 µM) | > 2 | 
5 | Nc1nc(/C(=N/OCc2nc(=O)c(O)c[nH]2)C(=O)N[C@@H]2C(=O)N3C(C(=O)O)=C(CSc4nc(-c5ccccc5)ncc4-c4ccc(O)c(O)c4)CS[C@H]23)cs1 [Example 16, (6R,7R)-7-[(Z)-2-(2-amino-4-thiazolyl)-2-[[(1,4-dihydro-5-hydroxy-4-oxo-2-pyrimidinyl)methoxy]imino]acetamido]-3-[[[5-(3,4-dihydroxyphenyl)-2-phenyl-4-pyrimidinyl]thio]methyl]-8-oxo-5-thia-1-azabicyclo[4.2.0]oct-2-ene-2-carboxylic acid] | < 0.5 | < 0.1 | 0.25 (≈ 0.312 µM) | 0.12 (≈ 0.15 µM) | < 0.1 | 0.25 (≈ 0.312 µM) | 32 (≈ 39.9 µM) | 4 (≈ 4.99 µM) | 0.25 (≈ 0.312 µM) | 1 (≈ 1.25 µM) | 1 (≈ 1.25 µM) | < 0.1 | > 32 | 0.5 (≈ 0.624 µM) | 8 (≈ 9.98 µM) | 0.12 (≈ 0.15 µM) | 0.25 (≈ 0.312 µM) | 8 (≈ 9.98 µM) | 0.25 (≈ 0.312 µM) | > 2 | 
6 | CC(C)(O/N=C(\C(=O)N[C@@H]1C(=O)N2C(C(=O)O)=C(CSc3ncncc3-c3ccc(O)c(O)c3)CS[C@H]12)c1csc(N)n1)C(=O)NO [Example 19a, (6R,7R)-7-[(Z)-2-(2-amino-4-thiazolyl)-2-[[1-(hydroxycarbamoyl)-1-methylethoxy]imino]acetamido]-3-[[[5-(3,4-dihydroxyphenyl)-4-pyrimidinyl]thio]methyl]-8-oxo-5-thia-1-azabicyclo[4.2.0]oct-2-ene-2-carboxylic acid] |  | < 0.1 | 0.5 (≈ 0.711 µM) | 0.25 (≈ 0.356 µM) | < 0.1 | 0.25 (≈ 0.356 µM) | 16 (≈ 22.8 µM) | 1 (≈ 1.42 µM) | 16 (≈ 22.8 µM) | 2 (≈ 2.85 µM) | 0.12 (≈ 0.171 µM) | < 0.1 | 16 (≈ 22.8 µM) | 0.25 (≈ 0.356 µM) | 2 (≈ 2.85 µM) | 0.12 (≈ 0.171 µM) | 0.12 (≈ 0.171 µM) | 16 (≈ 22.8 µM) | 1 (≈ 1.42 µM) |  | 
7 | CC(C)(O/N=C(\C(=O)N[C@@H]1C(=O)N2C(C(=O)O)=C(CSc3nc(-c4ccccc4)ncc3-c3ccc(O)c(O)c3)CS[C@H]12)c1csc(N)n1)C(=O)NNC(=O)c1ccc(O)c(O)c1 [Example 46, (6R,7R)-7-[(Z)-2-(2-amino-4-thiazolyl)-2-[[1-[3-(3,4-dihydroxybenzoyl)carbazoyl]-1-methylethoxy]imino]acetamido]-3-[[[5-(3,4-dihydroxyphenyl)-2-phenyl-4-pyrimidinyl]thio]methyl]-8-oxo-5-thia-1-azabicyclo[4.2.0]oct-2-ene-2-carboxylic acid] | < 0.5 | 0.12 (≈ 0.131 µM) | 4 (≈ 4.38 µM) | 0.5 (≈ 0.547 µM) | < 0.1 | 0.25 (≈ 0.274 µM) | > 32 | 0.5 (≈ 0.547 µM) | 1 (≈ 1.09 µM) | 0.25 (≈ 0.274 µM) | 4 (≈ 4.38 µM) | 0.25 (≈ 0.274 µM) | 2 (≈ 2.19 µM) | 0.25 (≈ 0.274 µM) | 16 (≈ 17.5 µM) | 0.25 (≈ 0.274 µM) | 0.5 (≈ 0.547 µM) | 16 (≈ 17.5 µM) | 2 (≈ 2.19 µM) |  | 
